Assay results taken from US9326973B2, “Hepatitis C virus inhibitors” (priority 2012, dated 2016).

Tested on: HCV replicon, genotype-1a variant with glutamine 30 changed to glutamate in the NS5A protein
Experiment: microbe, parasite or virus in culture
Type: cell-based, HCV genotype 1a
Settings: HCV replicon genotype 1a Q30E (Q→E) variant; test compound titrated with an NS5A-targeting compound (BMS-790052 fixed at 200 nM); ranking of synergist activity
Method in brief: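 Synergy was assessed by combining several fixed amounts of an NS5A-targeting compound with a titration of the second compound of interest.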

| SMILES | Fold-Synergistic 1a (Q30E) [fold] |
| --- | --- |
| CC(C)(C)[C@H](NC(=O)C1CCCCC1c1ccccc1)c1nc(-c2ccc(-c3ccc(-c4c[nH]c([C@@H](NC(=O)C5CCCCC5c5ccccc5)C(C)(C)C)n4)cc3)cc2)c[nH]1 (stereo partly shown) [Compound S-269] | >100 |
| O=C(Cc1ccc2ccccc2c1)N1CCC[C@H]1c1ncc(-c2ccc(-c3ccc(-c4cnc([C@@H]5CCCN5C(=O)Cc5ccc6ccccc6c5)[nH]4)cc3)cc2)[nH]1 [Compound S-145] | >10 |
| COC(=O)N[C@H](C(=O)N[C@H](c1nc(-c2ccc(-c3ccc(-c4c[nH]c([C@@H](NC(=O)[C@@H](NC(=O)OC)C5C[C@@H](C)O[C@H](C)C5)C(C)(C)C)n4)cc3)cc2)c[nH]1)C(C)(C)C)C1C[C@@H](C)O[C@H](C)C1 (stereo partly drawn) [Compound L-72] | >10 |
| COC(C)(C)C(=O)N[C@H](c1nc(-c2ccc(-c3ccc(-c4c[nH]c([C@@H](NC(=O)C(C)(C)OC)C(C)(C)C)n4)c(F)c3)cc2)c[nH]1)C(C)(C)C [Compound N-94] | >100 |
| CN1CCN(C(=O)C(=O)N[C@H](c2nc(-c3ccc(-c4ccc(-c5c[nH]c([C@@H](NC(=O)C(=O)N6CCN(C)CC6)C(C)(C)C)n5)cc4)cc3)c[nH]2)C(C)(C)C)CC1 [Compound W-35] | >100 |
| CC(C)(C)OC(=O)N[C@]1(C(=O)N[C@H](c2nc(-c3ccc(-c4ccc(-c5c[nH]c([C@@H](NC(=O)[C@@]6(NC(=O)OC(C)(C)C)C[C@@H]6c6ccccc6)C(C)(C)C)n5)cc4)cc3)c[nH]2)C(C)(C)C)C[C@@H]1c1ccccc1 [Compound W-2] | >100 |
| O=C(c1ccsc1)N1CCC[C@H]1c1ncc(-c2ccc(-c3ccc(-c4cnc([C@@H]5CCCN5C(=O)c5ccsc5)[nH]4)cc3)cc2)[nH]1 [Compound S-183] | <10 |
| C=C[C@H]1C[C@@]1(NC(=O)OC(C)(C)C)C(=O)N[C@H](c1nc(-c2ccc(-c3ccc(-c4c[nH]c([C@@H](NC(=O)[C@]5(NC(=O)OC(C)(C)C)C[C@@H]5C=C)C(C)(C)C)n4)cc3)cc2)c[nH]1)C(C)(C)C [Compound W-4] | >100 |
| CC(C)CC(=O)N[C@@H](Cc1ccccc1)c1nc(-c2ccc(-c3ccc(-c4c[nH]c([C@H](Cc5ccccc5)NC(=O)CC(C)C)n4)cc3)cc2)c[nH]1 [Compound P-6] | >10 |
| CC(C)(C)OC(=O)C[C@H](C(=O)N[C@H](c1nc(-c2ccc(-c3ccc(-c4c[nH]c([C@@H](NC(=O)[C@@H](CC(=O)OC(C)(C)C)C5CCCC5)C(C)(C)C)n4)cc3)cc2)c[nH]1)C(C)(C)C)C1CCCC1 [Compound S-272] | >100 |
| O=C(CC1CCCCC1)N1CCC[C@H]1c1ncc(-c2ccc(-c3ccc(-c4cnc([C@@H]5CCCN5C(=O)CC5CCCCC5)[nH]4)cc3)cc2)[nH]1 [Compound S-168] | >10 |
| CC(C)(C)[C@H](NC(=O)C1CC(=O)c2ccccc21)c1nc(-c2ccc(-c3ccc(-c4c[nH]c([C@@H](NC(=O)C5CC(=O)c6ccccc65)C(C)(C)C)n4)cc3)cc2)c[nH]1 (stereo partly shown) [Compound S-257] | >10 |
| Cc1cccc(C(=O)N2CCC[C@H]2c2ncc(-c3ccc(-c4ccc(-c5cnc([C@@H]6CCCN6C(=O)c6cccc(C)n6)[nH]5)cc4)cc3)[nH]2)n1 [Compound S-191] | <10 |
| Cc1cc(C(=O)N2CCC[C@H]2c2ncc(-c3ccc(-c4ccc(-c5cnc([C@@H]6CCCN6C(=O)c6cc(C)nc(Cl)c6)[nH]5)cc4)cc3)[nH]2)cc(Cl)n1 [Compound S-131] | >10 |
| C[C@H]1CC[C@@H](C(=O)N[C@H](c2nc(-c3ccc(-c4ccc(-c5c[nH]c([C@@H](NC(=O)[C@@H]6CC[C@H](C)N6C(=O)OC(C)(C)C)C(C)(C)C)n5)cc4)cc3)c[nH]2)C(C)(C)C)N1C(=O)OC(C)(C)C [Compound W-69] | >100 |
| C[C@H]1C[C@H](C)OC(C)(C(=O)N[C@H](c2nc(-c3ccc(-c4ccc(-c5c[nH]c([C@@H](NC(=O)C6(C)O[C@@H](C)C[C@H](C)O6)C(C)(C)C)n5)cc4)cc3)c[nH]2)C(C)(C)C)O1 (stereo partly drawn) [Compound L-85] | >100 |
